According to PubChem BioAssay (NCI):
Values joined by “and” are separate entries in the source; they are usually repeats but may differ in a detail not shown here. Equal entries are not always repeated.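 Briefly, cells in 96-well plates were exposed to five compound concentrations for 48 h, and endpoints were estimated by linear interpolation. GI50 marks 50% less growth. TGI denotes the concentration required for complete inhibition of growth.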

Tests used:
Test in all cases: NCI-60 cell line screen, 48 h
CAKI-1 renal = test system: CAKI-1 renal
786-0 renal = test system: 786-0 renal
HOP-62 NSCLC = test system: HOP-62 NSCLC
HCT-116 colon = test system: HCT-116 colon
HL-60(TB) leukemia = test system: HL-60(TB) leukemia
KM12 colon = test system: KM12 colon
EKVX NSCLC = test system: EKVX NSCLC
NCI-H23 lung = test system: NCI-H23 lung
OVCAR-4 ovarian = test system: OVCAR-4 ovarian
MDA-MB-231 breast = test system: MDA-MB-231 breast

Structure (SMILES)	TGI (CAKI-1 renal) [µM]	TGI (786-0 renal)	TGI (HOP-62 NSCLC)	TGI (HCT-116 colon)	TGI (HL-60(TB) leukemia)	TGI (KM12 colon)	TGI (EKVX NSCLC)	TGI (NCI-H23 lung)	TGI (OVCAR-4 ovarian)	GI50 (CAKI-1 renal) [µM]	GI50 (MDA-MB-231 breast) [µM]	TGI (MDA-MB-231 breast) [µM]	GI50 (786-0 renal) [µM]	GI50 (HOP-62 NSCLC) [µM]	GI50 (HCT-116 colon) [µM]	GI50 (HL-60(TB) leukemia) [µM]	GI50 (KM12 colon) [µM]	GI50 (NCI-H23 lung) [µM]	GI50 (OVCAR-4 ovarian) [µM]	GI50 (EKVX NSCLC) [µM]
O=c1c2ccccc2nc(-c2cccc(Cl)c2)n1NC1OC(CO)C(O)C(O)C1O (stereo unspecified)	> 100	> 100 µM	> 100 µM	> 100 µM	> 100 µM	> 100 µM	> 100 µM	> 100 µM	> 100 µM											
Cc1ccc2ccc3c4ccccc4ccc3c2c1	63.7	69.8 µM	> 100 µM	> 100 µM	60.5 µM	68.5 µM		96.5 µM	> 100 µM	20.9	17.4	47.9	24.4	38	31.2	23.8	21.6	22.4	17	
O=[N+]([O-])c1cccnc1S(=O)(=O)c1ccccc1	6.98	7.09 µM	32.8 µM	21.6 µM	7.01 µM	36.3 µM	14.5 µM	30.3 µM	17.1 µM											
[O-][n+]1c2cccc(O)c2[n+]([O-])c2cccc(O)c21	> 100	> 100 µM	> 100 µM	> 100 µM	> 100 µM	> 100 µM	76.2 µM	> 100 µM	> 100 µM											
Oc1cn(-c2ccc(Cl)cc2)nc1-c1n[nH]c(=S)n1-c1ccc(F)cc1	> 100	> 100 µM	54.6 µM	25.5 µM		> 100 µM	91.1 µM	33 µM	> 100 µM	40.5	10.2	60.1	28.1	22.7	11.6		13	15.7	45.4	27.5
COC(=O)C1CCC(C)CC1=O (stereo unspecified)	> 100	> 100 µM	> 100 µM	> 100 µM	> 100 µM	> 100 µM	> 100 µM	> 100 µM	> 100 µM											
C[n+]1cn(CC(=O)c2ccccc2)c(C(N)=O)c1N	> 100	> 100 µM	> 100 µM	74.1 µM	> 100 µM	> 100 µM	> 100 µM	> 100 µM	> 100 µM											
OCc1ccc(-c2ccc(-c3ccc(CO)o3)o2)o1	> 100	> 100 µM	> 78 µM	> 100 µM	> 100 µM	> 100 µM		> 100 µM	> 100 µM	> 100	33.1	> 100	35.3	27.1	> 88.9	> 100	> 100	> 100	> 41.3	
CCCCCCCCCCCCCC(=O)O[C@H]1CC[C@H](NC(=O)[C@H](OC)[C@H](O)[C@@H](O)[C@H](O)/C=C/C(C)C)C(=O)N(C)C1	0.668	15 µM and 3.18 µM	15 µM and > 23.8 µM	15 µM and 2.46 µM	2.43 µM and 3.71 µM	15 µM and 2.96 µM	15 µM and > 23.8 µM	0.15 µM and 0.056 µM	15 µM and 11.1 µM				0.00238	> 23.8		0.00238	0.00238	0.00328	0.00391	1.36
CC(C)N(C(=O)C12C3C4C1C1C4(C#N)C3C12C(=O)O)C(C)C (stereo unspecified)	> 100	> 100 µM	> 100 µM	> 100 µM	> 63 µM	> 100 µM	> 100 µM	> 100 µM	> 100 µM											
COc1ccc(/C=C/C(=O)c2c(-c3ccccc3)nn(C)c(=O)c2N2CCCCC2)cc1	92.4	38.2 µM		23.6 µM			> 100 µM	50.7 µM												
Cc1ccc(C(=O)Nc2ccc(Oc3cc4cnn(C)c4cc3-c3cn[nH]c3)c(F)c2)c(=O)n1-c1ccc(F)cc1	> 100	> 100 µM	> 100 µM	> 100 µM		> 100 µM		> 100 µM	> 100 µM	3.25	10.2	> 78.1	> 100	> 37.9	6.31		0.0304	8.97	> 100	
N#Cc1c(-c2ccccc2)c(-c2ccccc2)cc2c(=O)c3ccc(Cl)cc3[nH]c12		> 100 µM	> 100 µM	> 100 µM	> 100 µM		> 100 µM	> 100 µM												
OC1=CN=C(c2ccccc2)Oc2ccccc21		> 100 µM	> 100 µM	> 100 µM	> 100 µM	> 100 µM	> 100 µM	> 100 µM	> 100 µM											
O=C1C2C(C(=O)N1Cc1ccccc1)N(Cc1ccccc1)C(=O)N2Cc1ccccc1 (stereo unspecified)	> 100	> 100 µM	> 100 µM	> 100 µM	> 100 µM	> 100 µM	> 100 µM	> 100 µM	> 100 µM											
O=C1OC(=O)c2c1nc1ccccc1c2-c1ccccc1	> 100	> 100 µM	> 100 µM	> 100 µM	> 100 µM	> 100 µM			> 100 µM											
COC(=O)c1ccc(NC(N)=NCCC(C)(C)c2ccc(C(F)(F)F)cc2)nc1	14.2	28.2 µM	22 µM	3.3 µM	3.71 µM	9.12 µM		11.5 µM	9.18 µM	2.8	1.76	3.34	7.64	6.16	1.6	1.74	2.65	2.15	1.71	
NC1=NC(c2ccccc2Cl)c2c(n[nH]c2N)N1 (stereo unspecified)	> 100	> 100 µM	> 100 µM	> 100 µM		> 100 µM	> 100 µM	> 100 µM	> 100 µM	10.9	5.95	> 100	9.18	80.1	7.77		29.4	20.3	> 100	44.2
